Laboratory results as given in patent publication US20070098782A1, “Ramipril Formulation” (Selamine Limited, priority 2005, published 2007).

Key:
[1] = 1 mg/ml ramipril solution in buffer, principal impurity after 12 hours at 50° C.; assay type: physicochemical
Method: An experiment was carried out in which 50 mg of ramipril was dispersed in 50 ml water and known concentrations of buffer were added. The solutions were placed in a stoppered bottle and stored for 12 hours at 50° C.

[2] = molecular target: angiotensin converting enzyme (ACE) (Homo sapiens, UniProt P12821); settings: cited from earlier work
Sequence of angiotensin converting enzyme (ACE) (P12821 30-1306, species assumed): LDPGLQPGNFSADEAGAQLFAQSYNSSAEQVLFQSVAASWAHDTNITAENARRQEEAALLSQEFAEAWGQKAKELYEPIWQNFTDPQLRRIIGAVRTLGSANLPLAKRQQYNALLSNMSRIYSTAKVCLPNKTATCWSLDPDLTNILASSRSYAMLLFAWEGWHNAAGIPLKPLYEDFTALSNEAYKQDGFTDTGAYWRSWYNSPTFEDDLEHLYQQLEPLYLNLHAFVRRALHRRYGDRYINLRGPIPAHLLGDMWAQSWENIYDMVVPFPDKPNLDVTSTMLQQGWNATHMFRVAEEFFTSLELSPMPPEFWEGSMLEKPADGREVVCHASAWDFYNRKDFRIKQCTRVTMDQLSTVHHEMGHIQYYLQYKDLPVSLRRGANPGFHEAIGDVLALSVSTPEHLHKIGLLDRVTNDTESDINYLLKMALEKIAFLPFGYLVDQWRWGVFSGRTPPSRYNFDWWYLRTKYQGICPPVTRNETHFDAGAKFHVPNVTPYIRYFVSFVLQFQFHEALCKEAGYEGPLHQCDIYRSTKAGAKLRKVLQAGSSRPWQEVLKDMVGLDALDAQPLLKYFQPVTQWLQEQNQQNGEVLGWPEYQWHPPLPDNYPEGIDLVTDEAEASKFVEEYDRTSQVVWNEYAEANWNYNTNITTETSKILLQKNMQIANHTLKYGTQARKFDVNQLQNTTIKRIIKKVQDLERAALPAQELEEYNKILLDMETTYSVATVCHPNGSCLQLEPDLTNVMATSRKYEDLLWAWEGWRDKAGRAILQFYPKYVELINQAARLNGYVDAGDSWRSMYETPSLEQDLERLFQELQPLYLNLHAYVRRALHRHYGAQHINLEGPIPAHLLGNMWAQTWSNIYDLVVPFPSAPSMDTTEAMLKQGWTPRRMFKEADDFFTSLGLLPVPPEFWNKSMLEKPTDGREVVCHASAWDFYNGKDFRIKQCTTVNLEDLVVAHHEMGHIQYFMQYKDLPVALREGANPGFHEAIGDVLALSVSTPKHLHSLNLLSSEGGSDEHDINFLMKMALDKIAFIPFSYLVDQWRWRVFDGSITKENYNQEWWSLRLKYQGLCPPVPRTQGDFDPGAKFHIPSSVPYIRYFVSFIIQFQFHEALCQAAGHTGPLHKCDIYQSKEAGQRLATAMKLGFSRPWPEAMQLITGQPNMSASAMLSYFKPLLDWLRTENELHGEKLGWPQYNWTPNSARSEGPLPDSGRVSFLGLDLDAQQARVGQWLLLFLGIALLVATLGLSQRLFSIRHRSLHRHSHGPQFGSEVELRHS

[3] = buffer Sodium carbonate 0.24 mg/ml
[4] = buffer Sodium carbonate 0.74 mg/ml
[5] = buffer Sodium carbonate 1.00 mg/ml
[6] = buffer Sodium citrate 0.72 mg/ml
[7] = buffer Sodium citrate 1.00 mg/ml
[8] = buffer Sodium citrate 1.90 mg/ml

## CCOC(=O)[C@H](CCc1ccccc1)N[C@@H](C)C(=O)N1[C@H](C(=O)O)C[C@@H]2CCC[C@@H]21 [Ramipril, (2S,3aS,6aS)-1[(S)-N-[(S)-1-carboxy-3-phenylpropyl]alanyl] octahydrocyclopenta[b]pyrrole-2-carboxylic acid, 1-ethyl ester]
[1]; buffer L arginine 1.44 mg/ml
  Impurity D: 0.16%
  Impurity E: 13.7%
[1]; [3]
  Impurity D: 0.22%
  Impurity E: 9.9%
[1]; [4]
  Impurity D: 0.19%
  Impurity E: 11.3%
[1]; [5]
  Impurity D: 0.17%
  Impurity E: 15.2%
[1]; [6]
  Impurity D: 0.22%
  Impurity E: 8.2%
[1]; [7]
  Impurity D: 0.23%
  Impurity E: 8.4%
[1]; [8]
  Impurity D: 0.20%
  Impurity E: 7.5%

## C[C@H](N[C@@H](CCc1ccccc1)C(=O)O)C(=O)N1[C@H](C(=O)O)C[C@@H]2CCC[C@@H]21 [ramiprilat]
[2]; compared with ramipril
  potency as an ACE inhibitor relative to the parent compound ramipril: up to 6 times

## ramipril diketopiperazine
[2]
  activity as an ACE inhibitor: not active
